Laboratory results taken from article PMC11683865, “CACHE Challenge #1: Docking with GNINA Is All You Need” (Journal of Chemical Information and Modeling, 2024).
Read-outs that look alike come from different tables or passages of the source.

Target: T1, Leucine-rich repeat serine/threonine-protein kinase 2 (LRRK2), WD-40 repeat (WDR) domain (Homo sapiens, UniProt Q5S007)
T1 construct: WD-40 repeat (WDR) domain
T1 sequence (Q5S007 2142-2527): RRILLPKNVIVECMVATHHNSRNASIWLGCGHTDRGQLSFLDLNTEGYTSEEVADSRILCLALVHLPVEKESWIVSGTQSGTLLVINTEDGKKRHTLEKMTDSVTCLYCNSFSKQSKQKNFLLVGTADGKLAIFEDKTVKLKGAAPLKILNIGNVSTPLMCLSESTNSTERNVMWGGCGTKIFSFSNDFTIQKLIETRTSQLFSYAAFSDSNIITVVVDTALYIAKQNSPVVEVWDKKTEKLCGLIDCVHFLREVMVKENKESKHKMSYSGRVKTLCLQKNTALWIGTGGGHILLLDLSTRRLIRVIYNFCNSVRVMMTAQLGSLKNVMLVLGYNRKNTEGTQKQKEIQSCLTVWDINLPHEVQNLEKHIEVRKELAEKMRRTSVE
Assay: SPR
Type: binding

Row | Structure (SMILES) | Kd [µM] | Kd (read-out: Kd) [µM]
1 | O=C(CN1CCC2(C1)C(=O)Nc1ccccc12)Nc1ccc2c(c1)CCC2 (centres unmarked) [CACHE_1181_33] | > 100 | 
2 | O=C(NCc1ccc[nH]c1=O)N1CCC(CCc2ccc(F)cc2F)CC1 [CACHE_1181_50] |  | > 100
